Consider 21 compounds from US20050020576A1, “Kappa agonist compounds and pharmaceutical formulations thereof” (priority 1996, published 2005).

The structures appear in SMILES notation. Counter-ions that a name gives are not always drawn. Like-named read-outs stand apart in the source and are kept apart here.

In the test the target is cloned human kappa receptor (Homo sapiens, UniProt P41145). Briefly: biochemical. It counts as binding. Also noted: (3H)-Diprenorphin, % / k [3H] Diprenorphin, %: dose or concentration left out as unconfirmed.
cloned human kappa receptor, sequence (P41145 whole entry): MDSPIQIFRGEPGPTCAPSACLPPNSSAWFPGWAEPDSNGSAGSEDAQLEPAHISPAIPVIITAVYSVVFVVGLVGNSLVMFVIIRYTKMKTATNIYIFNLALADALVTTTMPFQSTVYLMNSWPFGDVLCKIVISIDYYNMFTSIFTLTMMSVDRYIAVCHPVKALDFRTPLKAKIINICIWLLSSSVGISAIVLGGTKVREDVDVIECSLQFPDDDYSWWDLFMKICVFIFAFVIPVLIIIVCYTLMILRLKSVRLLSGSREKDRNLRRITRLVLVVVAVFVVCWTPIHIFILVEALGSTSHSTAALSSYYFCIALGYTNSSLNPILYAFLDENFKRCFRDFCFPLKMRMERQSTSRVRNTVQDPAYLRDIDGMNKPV

One may read the Ki as a measure of affinity in units of concentration, obtained from inhibition or displacement. Take `COC(=O)N1CCN(C(=O)Cc2ccc(C(F)(F)F)cc2)C(CN2CC[C@H](OC(=O)Cc3ccc(C(F)(F)F)cc3)C2)C1` (mixture of isomers) [Example 1j, Methyl-4-[(4-a,a,a-trifluoromethylphenyl)acetyl]-3-(R,S)-[3-(S)-(4′-α,α,α-trifluoro methylphenylacetate)-1-(pyrrolidinyl)methyl]-1-piperazinecarboxylate hydrochloride]: the affinity (Ki, nM 3H-Diprenorphin), expressed as Ki, was 13 nM.

As for `COC(=O)N1CCN(C(=O)Cc2ccc(C(F)(F)F)cc2N)C(CN2CCC[C@H]2CO)C1` (mixture of isomers) [Example 1p, Methyl-4-[(2-amino-4-α,α,α-trifluoromethylphenyl)acetyl]-3-(R,S)-[(2-(S)-pyrrolidinemethanol)methyl]-1-piperazinecarboxylate hydrochloride], the affinity (Ki, nM 3H-Diprenorphin), expressed as Ki, was 11 nM.

Take `CC(=O)N1CCN(C(=O)Cc2ccc(S(C)(=O)=O)cc2)C(CN2CC[C@H](OC(=O)Cc3ccc(S(C)(=O)=O)cc3)C2)C1` (mixture of isomers) [Example 1u, 4-Acetyl-1-[(4-methylsulfonyl]phenyl)acetyl]-2-(R,S)-[3-(S)-(4′-methylsulfonylphenyl acetate)-1-(Pyrrolidinyl)methyl]piperazine hydrochloride]: where the note is “Table IA, read-out: Ki(nM) (3H)-Diprenorphin”, the Ki was 1780 nM.

In turn, `COC(=O)N1CCN(C(=O)Cc2ccc(C(F)(F)F)cc2N(S(C)(=O)=O)S(C)(=O)=O)C(CN2CCCC2)C1` (racemic) [Example 1b, Methyl-4-[(2-[N,N-bis-methylsulfonamido]-4-trifluoromethyphenyl)acetyl]-3-(R,S)-[(1-pyrrolidinyl)-methyl]-1-piperazinecarboxylate dihydrochloride] displayed a Ki (Ki, nM 3H-Diprenorphin) of 7 nM.

In the case of `CNS(=O)(=O)c1ccc(CC(=O)N2CCN(C(=O)OC)CC2CN2CCCC2)cc1` (racemic) [Example 1f, Methyl-4-[-4-[N-methylamino)sulfamyl]phenyl)acetyl]-3-(R,S)-[(1-pyrrolidinyl)methyl]-1-piperazinecarboxylate hydrochloride], the Ki (Ki, nM 3H-Diprenorphin) turned out to be 53.5 nM.

As to `CC(=O)N1CCN(C(=O)Cc2ccccn2)C(CN2CCCC2)C1.Cl` (racemic) [Example 1gg, 4-Acetyl-1-[(2-pyridyl)acetyl]-2-(R,S)-[(1-pyrrolidinyl)methyl]piperazine hydrochloride], the “(3H)-Diprenorphin, %” value came to 27% @ 1 mM.

Take `Cl.O=CN1CCN(C(=O)Cc2ccccn2)C(CN2CCCC2)C1` (racemic) [Example 1hh, 4-Formyl-1-[(2-pyridyl)acetyl]-2-(R,S)-[(1-pyrrolidinyl)methyl]piperazine hydrochloride]: the “(3H)-Diprenorphin, %” value is on record as 0% @ 1 mM.

`COc1cccc(C(CN2CCCC2)N(C)C(=O)Cc2ccccc2NS(C)(=O)=O)c1` (racemic) [Example 3uu, (R,S)-1-[2-(Methanesulfonylamino)phenyl-N-methylacetamido]-1-(3-methoxyphenyl)-2-(1-pyrrolidino)-ethane, methanesulfonic acid salt] showed a Ki (Ki (nM) [3H]-Diprenorphin κ) of 17.5 nM.

Turning to `CN(C(=O)Cc1ccccc1NS(C)(=O)=O)C(CN1CCCC1)c1cccc(O)c1` (racemic) [Example 3vv, (R,S)-1-[2-(Methanesulfonylamino)phenyl-N-methylacetamido]-1-(3-hydroxyphenyl)-2-(1-pyrrolidino)-ethane, methanesulfonic acid salt], affinity (Ki (nM) [3H]-Diprenorphin κ) was put at a Ki of 19.5 nM.

Turning to `CN(C(=O)Cc1ccc(C(F)(F)F)cc1NC(=O)/C=C\C(=O)O)C1CCCCC1N1CCCC1` (racemic) [Example 4b, (Z)-4-[2-((±)-trans-2-Amino-4-trifluoromethyl-N-methyl-N-[2-(1-pyrrolidinyl)-cyclohexyl]-phenylaetamido)]4-oxo-2-butenoic acid], the “[3H]-Diprenorphin, % @ 1 μM” value came to 22% @ 1 μM.

In turn, `CS(=O)(=O)N1CCN(C(=O)Cc2ccc(C(F)(F)F)cc2)C(CN2CC[C@H](OC(=O)Cc3ccc(C(F)(F)F)cc3)C2)C1` (stereo partly drawn) [Example 1mm, 4-Methylsulphonyl-1-[(4-α,α,α-triflouromethylphenyl)acetyl]-2-(R,S)-[3-(S)-(4′-α,α,α-triflouromethylphenyl acetate)-1-(pyrrolidinyl)methyl]piperazine hydrochloride] had a Ki (Ki, nM 3H-Diprenorphin) of 287 nM.

Take `CN(C(=O)Cc1ccccc1NC(=O)/C=C\C(=O)O)[C@H](CN1CCCC1)c1ccccc1` [Example 3aa, (Z)-4-[2-(2-Aminophenyl)-N-methyl-N-[(1S)-1-phenyl)-2-(1-pyrrolidinyl]-ethyl]acetamido]4-oxo-2-butenoic acid hemimaleate]: the Ki (read-out: Ki (nM) [3H]-Diprenorphin κ) was 5280 nM.

Regarding `CN(C(=O)Cc1ccc(C(F)(F)F)cc1NCC(=O)O)[C@H](CN1CCCC1)c1ccccc1` [Example 3b, N-[(4-Trifluoromethylphenyl)-N-methyl-N-{[1S]-1-phenyl-2-[1-pyrrolidinyl)]ethyl}acetamido]glycine hydrochloride], the Ki (Table IIIA, read-out: Ki (nM) [3H]-Diprenorphin κ) is 464 nM.

Compound `CN(C(=O)Cc1ccccc1NS(C)(=O)=O)[C@H](CN1CCCC1)c1cccc(NS(C)(=O)=O)c1` [Example 3pp, 2-(2-Methanesulfonamidophenyl)-N-methyl-N-[(1S)-1-(3-methanesulfon-amidophenyl)-2-(1-pyrrolidinyl)ethyl]acetamide Hydrochloride] had a Ki (Ki (nM) [3H]-Diprenorphin κ) of 4.6 nM.

Where the note is “Ki (nM) [3H]-Diprenorphin κ”, `CC(C)C(=O)Nc1cccc([C@@H](CN2CCCC2)N(C)C(=O)Cc2ccccc2NC(=O)C(C)C)c1` [Example 3qq, 2-(2-Iso-butyramidophenyl)-N-methyl-N-[(1S)-1-(3-isobutyramido-phenyl)-2-(1-pyrrolidinyl)ethyl]acetamide Methanesulfonic acid salt] had a Ki of 21 nM.

Consider `COc1cc(CC(=O)N(C)[C@H](CN2CCCC2)c2ccccc2)c(S(=O)(=O)N(C)Cc2ccccc2)cc1OC` [Example 3xx, 2-(2-N-Benzyl-2-N-methylsulfamoyl-3,4-dimethoxyphenyl)-N-methyl-N-[(1S)-1-phenyl-2-(1-pyrrolidinyl)ethyl]acetamide hydrochloride], for which the affinity (Ki (nM) [3H]-Diprenorphin κ) corresponds to a Ki of 0.83 nM.

Under “Ki (nM) [3H]-Diprenorphin κ”, `CCOC(=O)/C=C/C(=O)Nc1cc(Cl)c(Cl)cc1CC(=O)N(C)[C@H](CN1CCCC1)c1ccccc1` [Example 3y, (E) Ethyl 4-[2-(2-amino-4,5-dichlorophenyl)-N-methyl-N-[(1S)-1-phenyl)-2-[1-pyrrolidinyl]ethyl]acetamido]4-oxo-2-butenoate hydrochloride] registered a Ki of 0.35 nM.

With `CN(C(=O)Cc1cc2c(cc1S(=O)(=O)N(C)Cc1ccccc1)OCO2)[C@H](CN1CCCC1)c1ccccc1` [Example 131, 2-[2-(N-Benzyl-N-methylsulfamoyl)-4,5-methylenedioxyphenyl]-N-methyl-N-[(1S)-1-phenyl-2-[(1-pyrrolidinyl)ethyl]]acetamide], the Ki (Ki (nM) [3H]-Diprenorphin κ) was 0.22 nM.

Turning to `COc1cc(CC(=O)N(C)[C@H](CN2CC[C@H](O)C2)c2ccccc2)c(S(=O)(=O)N2CCCC2)cc1OC` [Example 135, 2-[2-(N-Pyrrolidinesulfamoyl)-4,5-dimethoxyphenyl]-N-methyl-N-[(1S)-1-phenyl-2-[1-(3S)-(3-hydroxypyrrolidinyl)ethyl]]acetamide], the Ki (Ki (nM) [3H]-Diprenorphin κ) was 0.66 nM.

Take `COc1cc(CC(=O)N(C)[C@H](CN2CC[C@H](O)C2)c2ccccc2)c(S(=O)(=O)N(C)C)cc1OC` [Example 137, 2-[2-(N-Dimethylsulfamoyl)-4,5-dimethoxyphenyl]-N-methyl-N-[(1S)-1-phenyl-2-[1-(3S)-(3-hydroxypyrrolidinyl)ethyl]]acetamide]: where the note is “read-out: Ki(nM) [3H]-Diprenorphin κ”, the Ki came to 0.83 nM.

For `COc1cc(CC(=O)N(C)[C@H](CN2CC[C@H](O)C2)c2ccccc2)c(S(=O)(=O)N2CCN(C)CC2)cc1OC` [Example 139], the affinity (Ki (nM) [3H]-Diprenorphin κ), expressed as Ki, was 4.2 nM.
